Assay results: patent US5021421A, “2-(1-Piperazinyl)-4-phenylcycloalkanopyridine derivatives, processes for the production thereof, and pharmaceutical composition containing the same” (Dainippon Pharmaceutical Co., Ltd., priority 1989, dated 1991)
Where two headings read alike, the source gives them in different places.

Legend:
[1] = U.S. Pat. No. 4,831,034; cited from earlier work
adrenaline (α1) receptor = test: In vitro binding to adrenaline (α1) receptor, [3H] WB-4101; set-up: species or system rats; conditions: [3H] WB-4101, rat brain crude synaptosome fraction
Protocol: (§1) Dopamine (D2), serotonin (S1, S2) and adrenaline (α1) receptor binding assays were carried out according to the methods of I. Creese et al. [Eur. J. Pharmacol., 46, 377 (1977), S. J. Peroutka et al. [Mol. Pharmacol. 16, 687 (1979)], J. E. Leysen et al. [Mol. Pharmacol., 21, 301 (1982)] and D. C. U'Prichard et al. [Mol. Pharmacol., 13, 454 (1977)], respectively.
(§2) Crude synaptosome fractions were prepared from some brain regions in rats for receptor sources. Radioactive ligands used were [^3 H] spiperone (D2), [^3 H] serotonin (S1), [^3 H] ketanserin (S2) and [^3 H] WB-4101 (α1). The binding assay was performed by incubating aliquots of synaptosome fraction in buffer solution (final volume: 1 ml) containing a [^3 H] labelled ligand and a test compound. The assay was terminated by rapid filtration through Whatman GF/B glass fiber filters attached to a cell-harvester (Brandel) and radioactivity on the filters was counted in a Packard Triscarb scintillation counter. Specific binding was calculated as a difference between amounts of radioactivity in the presence and absence of an unlabelled ligand [spiperone (D2), serotonin (S1), methysergide (S2) and prazosin (α1)]. The IC50 value of the test compounds (concentration causing 50% inhibition of [^3 H] ligand specific binding) was determined by probit analysis.

mice = test: Acute toxicity; assay type: in vivo, mice (Std-ddy strain); conditions: dose 500 mg/kg oral, 7 days observation
Description: A group of 5 male mice (Std-ddy strain, 25-30 g) was used. The test compound was orally administered to the test animal in the form of a 0.5% tragacanth solution or suspension, and for 7 days after the administration of the test compound, the lethality of animals was observed.

dopamine (D2) receptor = target: T1, dopamine (D2) receptor (Rattus norvegicus, UniProt P61169); test: In vitro binding to dopamine (D2) receptor, [3H] spiperone; set-up: species or system rats; conditions: for IC50: [3H] spiperone, rat brain crude synaptosome fraction, read-out: IC50 D2
T1 construct: Crude synaptosome fractions were prepared from some brain regions in rats for receptor sources; from tissue
Protocol: as §1, §2

[2] = tested on: apomorphine-induced vomiting; test: Antagonistic effect on apomorphine-induced vomiting; assay type: in vivo, dogs (Beagle)
How it was run: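 Beagle dogs (8–15 kg, 3–4 per group) received test compound, then 0.3 mg/kg apomorphine hydrochloride s.c. two hours later. Vomiting episodes counted over 1 h; percent inhibition calculated against a non-dosed control group.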

serotonin (S2) receptor = target: T2, serotonin (S2) receptor (Rattus norvegicus, UniProt P14842); test: In vitro binding to serotonin (S2) receptor, [3H] ketanserin; set-up: species or system rats; conditions: for IC50: [3H] ketanserin, rat brain crude synaptosome fraction
T2 construct: Crude synaptosome fractions were prepared from some brain regions in rats for receptor sources; from tissue
Protocol: as §1, §2

[3] = tested on: brain monoamine metabolites; test: Increasing effect on concentration of brain monoamine metabolites; assay type: in vivo, mice (Std-ddy strain); conditions: Mus musculus, 2 h, non-dosed=100
How it was run: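 Male Std-ddy mice (25-30 g, n=5) decapitated 2 h after dosing; brain extracts analysed by HPLC with electrochemical detection for DOPAC, HVA, MOPEG and 5-HIAA. Values expressed as % of non-dosed controls (=100).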

serotonin (S1) receptor = test: In vitro binding to serotonin (S1) receptor, [3H] serotonin; set-up: species or system rats; conditions: rat brain crude synaptosome fraction
Protocol: as §1, §2

[4] = Psychotropic / anti-psychotic (neuroleptic) activity, general statement; conditions: experiments by the present inventors
[5] = Canis lupus familiaris, sc, apomorphine 0.3 mg/kg s.c. 2 h after compound, read-out: Inhibitory ratio (apomorphine-induced vomiting)
[6] = read-out: DOPAC concentration, % of control
[7] = read-out: HVA concentration, % of control
[8] = read-out: 5-HIAA concentration, % of control
[9] = read-out: MOPEG concentration, % of control

T1 sequence (P61169 whole entry): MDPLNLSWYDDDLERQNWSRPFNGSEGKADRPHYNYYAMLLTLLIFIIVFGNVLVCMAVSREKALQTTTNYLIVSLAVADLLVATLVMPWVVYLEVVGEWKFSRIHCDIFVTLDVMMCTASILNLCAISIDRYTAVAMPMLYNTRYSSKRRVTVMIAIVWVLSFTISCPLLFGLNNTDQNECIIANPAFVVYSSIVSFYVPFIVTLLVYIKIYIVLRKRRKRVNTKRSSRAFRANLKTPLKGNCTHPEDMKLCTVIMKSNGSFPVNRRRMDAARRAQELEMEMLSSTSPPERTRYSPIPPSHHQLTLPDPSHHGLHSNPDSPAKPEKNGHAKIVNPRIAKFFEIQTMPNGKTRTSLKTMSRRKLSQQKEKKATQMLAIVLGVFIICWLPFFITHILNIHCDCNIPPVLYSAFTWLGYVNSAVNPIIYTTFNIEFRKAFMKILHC
T2 sequence (P14842 whole entry): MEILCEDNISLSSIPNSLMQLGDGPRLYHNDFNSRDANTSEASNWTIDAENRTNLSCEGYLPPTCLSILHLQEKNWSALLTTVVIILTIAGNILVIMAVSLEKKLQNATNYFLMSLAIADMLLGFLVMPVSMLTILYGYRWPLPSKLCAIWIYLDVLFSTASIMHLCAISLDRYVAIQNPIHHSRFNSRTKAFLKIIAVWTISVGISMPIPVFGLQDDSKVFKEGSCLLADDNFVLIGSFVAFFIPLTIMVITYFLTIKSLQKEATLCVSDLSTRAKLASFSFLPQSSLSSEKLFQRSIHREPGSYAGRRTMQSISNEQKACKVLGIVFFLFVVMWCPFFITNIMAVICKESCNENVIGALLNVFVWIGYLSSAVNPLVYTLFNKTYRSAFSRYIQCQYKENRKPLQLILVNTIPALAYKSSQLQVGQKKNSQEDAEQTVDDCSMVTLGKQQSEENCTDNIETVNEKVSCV

Row | SMILES | IC50 (adrenaline (α1) receptor) [nM] | Number of dead animals / Number of test animals (mice) | IC50 (dopamine (D2) receptor) [nM] | inhibition in vivo at 0.2 mg/kg [2, 5] [%] | IC50 (serotonin (S2) receptor) [nM] | IC50 (serotonin (S1) receptor) [nM] | other results
1 | Cc1ccc(CN2CCN(c3cc(-c4ccccc4)ccn3)CC2)cc1 [2-[4-(4-methylbenzyl)-1-piperazinyl]-4-phenylpyridine] | – | – | – | – | – | – | activity as an anti-psychotic drug or as a neuroleptic drug [1]: weak activity
2 | CCN1CCN(c2cc(-c3ccc(F)cc3)c3c(n2)CCCCCC3)CC1 [Example 1a, 2-(4-ethyl-1-piperazinyl)-4-(4-fluorophenyl)-5,6,7,8,9,10-hexahydrocycloocta[b]pyridine] | 83 | 0/5 | 24 | 100 | 9.9 | – | –
3 | CCN1CCN(c2cc(-c3ccc(F)cc3F)c3c(n2)CCCCCC3)CC1 [Example 2b, 2-(4-ethyl-1-piperazinyl)-4-(2,4-difluorophenyl)-5,6,7,8,9,10-hexahydrocycloocta[b] pyridine] | – | 0/5 | – | 100 | – | – | response vs control in vivo at 2 mg/kg [3, 6]: 364%; response vs control in vivo at 2 mg/kg [3, 7]: 271%
4 | CCN1CCN(c2cc(-c3ccc(F)cc3)c3c(n2)CCC3)CC1 [Example 6, 2-(4-Ethyl-1-piperazinyl)-4-(4-fluorophenyl)-6,7-dihydro-5H-1-pyrindine] | 6.9 | 0/5 | 19 | – | 7.6 | 1500 | response vs control in vivo at 10 mg/kg [3, 8]: 103%; response vs control in vivo at 10 mg/kg [3, 6]: 321%; response vs control in vivo at 10 mg/kg [3, 7]: 242%; response vs control in vivo at 10 mg/kg [3, 9]: 115%; inhibition in vivo at 1 mg/kg ([2]; Canis lupus familiaris, sc, dose 1.0 mg/kg, apomorphine 0.3 mg/kg s.c. 2 h after compound, read-out: Inhibitory ratio (apomorphine-induced vomiting)): 89%
5 | CCN1CCN(c2cc(-c3ccc(F)cc3)c3c(n2)CCCCC3)CC1 [Example 25, 2-(4-Ethyl-1-piperazinyl)-4-(4-fluorophenyl)-6,7,8,9-tetrahydro-5H-cyclohepta[b]pyridine] | 120 | 0/5 | 77 | – | 2.3 | 2600 | response vs control in vivo at 1 mg/kg [3, 8]: 113%; response vs control in vivo at 1 mg/kg [3, 6]: 272%; response vs control in vivo at 1 mg/kg [3, 7]: 207%; response vs control in vivo at 1 mg/kg [3, 9]: 106%; inhibition in vivo at 3 mg/kg ([2]; Canis lupus familiaris, sc, dose 3.0 mg/kg, apomorphine 0.3 mg/kg s.c. 2 h after compound, read-out: Inhibitory ratio (apomorphine-induced vomiting)): 100%
6 | Cc1nc(N2CCN(c3ccccc3)CC2)cc(-c2ccc(F)cc2)c1-c1ccc(F)cc1 [Test Compound A, 4,5-Bis-(4-fluorophenyl)-6-methyl-2-(4-phenylpiperazino)pyridine, reference compound] | > 10000 | – | > 10000 | – | > 10000 | – | binding property to dopamine (D2) receptors (in words) (dopamine (D2) receptor): no binding property; inhibition in vivo at 3 mg/kg ([2]; Canis lupus familiaris, sc, 2 h, read-out: Inhibitory ratio (apomorphine-induced vomiting)): 11%; effect on apomorphine-induced vomiting (in words) ([2]; dog, in vivo): no inhibitory effect; binding property to serotonin (S2) receptors (in words) (serotonin (S2) receptor): no binding property; psychotropic activity [4]: did not show any psychotropic activity
